Experimental data: the kinase profiling compilation of Christmann-Franck et al. (2016)

Legend:
Experiment in all cases: radiometric filter-binding kinase assay
AURKB (human) = AURKB (human) (UniProt Q96GD4)
CDK2 CCNA2 (human) = CDK2 CCNA2 (human) (UniProt P20248+P24941)
CHEK2 (human) = CHEK2 (human) (UniProt O96017)
CSK (human) = CSK (human) (UniProt P41240)
CSNK2A1 (human) = CSNK2A1 (human) (UniProt P68400)
EEF2K (human) = EEF2K (human) (UniProt O00418)
EPHB3 (human) = EPHB3 (human) (UniProt P54753)
FGFR1 (human) = FGFR1 (human) (UniProt P11362)
Chain of FGFR1 (human) (P11362 whole entry, looked up): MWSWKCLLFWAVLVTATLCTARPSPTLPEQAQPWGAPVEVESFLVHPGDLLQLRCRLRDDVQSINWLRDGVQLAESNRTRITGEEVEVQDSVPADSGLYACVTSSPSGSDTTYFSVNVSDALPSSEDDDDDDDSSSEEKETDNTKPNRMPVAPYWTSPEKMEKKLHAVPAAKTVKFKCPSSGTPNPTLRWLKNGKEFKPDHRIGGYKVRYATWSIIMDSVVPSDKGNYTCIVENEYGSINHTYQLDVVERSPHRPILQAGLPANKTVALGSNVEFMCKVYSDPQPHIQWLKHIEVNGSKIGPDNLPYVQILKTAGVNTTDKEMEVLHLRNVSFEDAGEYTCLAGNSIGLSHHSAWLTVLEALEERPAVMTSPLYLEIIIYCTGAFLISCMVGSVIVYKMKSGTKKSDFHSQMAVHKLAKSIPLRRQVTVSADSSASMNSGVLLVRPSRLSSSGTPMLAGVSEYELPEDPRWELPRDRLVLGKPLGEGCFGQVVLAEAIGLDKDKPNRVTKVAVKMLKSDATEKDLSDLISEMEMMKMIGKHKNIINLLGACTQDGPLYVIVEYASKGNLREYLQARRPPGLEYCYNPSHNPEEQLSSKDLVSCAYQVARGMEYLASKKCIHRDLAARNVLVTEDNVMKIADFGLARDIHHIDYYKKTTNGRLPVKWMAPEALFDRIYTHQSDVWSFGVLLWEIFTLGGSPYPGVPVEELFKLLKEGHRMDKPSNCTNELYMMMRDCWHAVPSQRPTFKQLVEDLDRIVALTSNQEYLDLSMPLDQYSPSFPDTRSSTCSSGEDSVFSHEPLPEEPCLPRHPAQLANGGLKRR

GSK3B (human) = GSK3B (human) (UniProt P49841)
Chain of GSK3B (human) (P49841 whole entry, looked up): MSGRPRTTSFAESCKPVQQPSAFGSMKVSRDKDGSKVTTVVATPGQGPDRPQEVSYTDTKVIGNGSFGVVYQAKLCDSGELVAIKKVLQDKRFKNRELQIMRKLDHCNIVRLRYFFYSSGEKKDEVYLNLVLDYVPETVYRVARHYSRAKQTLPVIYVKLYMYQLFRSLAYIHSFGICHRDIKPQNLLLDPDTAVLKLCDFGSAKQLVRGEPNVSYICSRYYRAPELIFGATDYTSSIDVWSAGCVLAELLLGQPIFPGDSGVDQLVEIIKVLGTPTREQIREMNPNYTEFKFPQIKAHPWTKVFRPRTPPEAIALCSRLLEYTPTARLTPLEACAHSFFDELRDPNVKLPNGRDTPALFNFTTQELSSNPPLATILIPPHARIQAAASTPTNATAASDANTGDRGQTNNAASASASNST

IKBKB (human) = IKBKB (human) (UniProt O14920)
INSRR (human) = INSRR (human) (UniProt P14616)
LCK (mouse) = conditions: accession and sequence are those of the human protein
MAPK1 (human) = MAPK1 (human) (UniProt P28482)
MAPK13 (human) = MAPK13 (human) (UniProt O15264)
MELK (human) = MELK (human) (UniProt Q14680)
MKNK1 (human) = MKNK1 (human) (UniProt Q9BUB5)
Chain of MKNK1 (human) (Q9BUB5 whole entry, looked up): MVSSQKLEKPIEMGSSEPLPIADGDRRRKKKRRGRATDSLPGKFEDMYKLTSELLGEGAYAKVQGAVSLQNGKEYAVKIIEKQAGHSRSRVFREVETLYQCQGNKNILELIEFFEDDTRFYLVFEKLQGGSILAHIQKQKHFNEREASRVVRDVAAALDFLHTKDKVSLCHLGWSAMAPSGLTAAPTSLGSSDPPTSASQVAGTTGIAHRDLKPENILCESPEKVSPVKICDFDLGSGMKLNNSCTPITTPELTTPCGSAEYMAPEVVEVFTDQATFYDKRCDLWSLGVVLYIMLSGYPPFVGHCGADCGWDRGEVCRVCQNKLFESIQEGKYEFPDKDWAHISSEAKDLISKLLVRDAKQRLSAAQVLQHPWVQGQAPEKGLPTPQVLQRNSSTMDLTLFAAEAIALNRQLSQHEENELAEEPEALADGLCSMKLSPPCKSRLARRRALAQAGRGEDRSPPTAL

MKNK2 (human) = MKNK2 (human) (UniProt Q9HBH9)
Chain of MKNK2 (human) (Q9HBH9 whole entry, looked up): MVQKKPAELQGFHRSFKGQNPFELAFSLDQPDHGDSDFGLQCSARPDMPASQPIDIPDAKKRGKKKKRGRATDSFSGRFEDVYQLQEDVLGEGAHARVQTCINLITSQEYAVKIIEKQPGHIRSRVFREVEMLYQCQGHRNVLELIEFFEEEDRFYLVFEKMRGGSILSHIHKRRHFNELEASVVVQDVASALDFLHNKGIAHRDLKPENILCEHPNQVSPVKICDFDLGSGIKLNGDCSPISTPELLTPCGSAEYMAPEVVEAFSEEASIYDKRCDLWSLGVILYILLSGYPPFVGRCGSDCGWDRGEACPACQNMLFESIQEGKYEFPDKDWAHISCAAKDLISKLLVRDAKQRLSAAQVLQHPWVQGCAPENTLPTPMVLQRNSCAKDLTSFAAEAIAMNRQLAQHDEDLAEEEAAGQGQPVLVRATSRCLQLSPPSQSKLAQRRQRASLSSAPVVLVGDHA

MYLK (human) = MYLK (human) (UniProt Q15746)
PHKG1 (human) = PHKG1 (human) (UniProt Q16816)
PRKAA1 or PRKAA2 (rat) = conditions: accession and sequence are those of the human protein
PRKACA (human) = PRKACA (human) (UniProt P17612)
PRKCZ (human) = PRKCZ (human) (UniProt Q05513)
Chain of PRKCZ (human) (Q05513 whole entry, looked up): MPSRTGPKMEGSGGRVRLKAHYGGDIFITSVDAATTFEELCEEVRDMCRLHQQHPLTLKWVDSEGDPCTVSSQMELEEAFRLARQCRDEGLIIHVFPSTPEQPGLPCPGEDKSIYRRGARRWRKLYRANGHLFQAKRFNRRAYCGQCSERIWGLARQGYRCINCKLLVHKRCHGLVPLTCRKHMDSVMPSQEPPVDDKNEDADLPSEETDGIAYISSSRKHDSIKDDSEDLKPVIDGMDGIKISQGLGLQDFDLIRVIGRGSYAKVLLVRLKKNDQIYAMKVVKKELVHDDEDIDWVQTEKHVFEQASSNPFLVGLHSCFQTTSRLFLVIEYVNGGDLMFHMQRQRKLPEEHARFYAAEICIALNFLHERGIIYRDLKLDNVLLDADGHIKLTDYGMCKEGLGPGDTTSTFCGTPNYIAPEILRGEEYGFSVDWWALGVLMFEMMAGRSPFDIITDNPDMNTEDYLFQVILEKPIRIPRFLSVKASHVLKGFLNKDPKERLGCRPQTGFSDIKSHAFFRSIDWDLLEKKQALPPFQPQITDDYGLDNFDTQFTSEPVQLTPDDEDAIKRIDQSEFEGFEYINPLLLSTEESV

ROCK2 (rat) = conditions: accession and sequence are those of the human protein
RPS6KA1 KD1 KD2 (human) = RPS6KA1 KD1 KD2 (human) (UniProt Q15418)
Chain of RPS6KA1 KD1 KD2 (human) (Q15418 whole entry, looked up): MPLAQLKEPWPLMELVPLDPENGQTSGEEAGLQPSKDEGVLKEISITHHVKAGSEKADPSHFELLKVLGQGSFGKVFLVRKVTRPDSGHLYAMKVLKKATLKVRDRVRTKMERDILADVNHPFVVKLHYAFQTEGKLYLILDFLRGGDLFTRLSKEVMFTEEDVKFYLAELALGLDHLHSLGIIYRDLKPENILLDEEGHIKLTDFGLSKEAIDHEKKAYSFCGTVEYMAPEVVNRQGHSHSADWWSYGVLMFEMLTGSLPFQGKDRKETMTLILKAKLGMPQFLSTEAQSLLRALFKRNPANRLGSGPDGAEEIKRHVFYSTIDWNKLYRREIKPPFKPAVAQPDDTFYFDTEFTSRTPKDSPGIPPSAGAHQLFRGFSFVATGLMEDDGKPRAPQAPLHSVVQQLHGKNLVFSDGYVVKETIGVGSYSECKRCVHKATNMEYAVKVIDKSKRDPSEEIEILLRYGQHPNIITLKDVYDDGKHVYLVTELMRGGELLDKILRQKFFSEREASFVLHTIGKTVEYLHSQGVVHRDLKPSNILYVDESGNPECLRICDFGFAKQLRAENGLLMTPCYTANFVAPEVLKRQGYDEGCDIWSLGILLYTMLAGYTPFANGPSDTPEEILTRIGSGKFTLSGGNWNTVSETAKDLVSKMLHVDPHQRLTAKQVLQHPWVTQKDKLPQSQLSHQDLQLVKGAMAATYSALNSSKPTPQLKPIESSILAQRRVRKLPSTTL

SRC (human) = SRC (human) (UniProt P12931)

Chain of EEF2K (human) (O00418 whole entry, looked up): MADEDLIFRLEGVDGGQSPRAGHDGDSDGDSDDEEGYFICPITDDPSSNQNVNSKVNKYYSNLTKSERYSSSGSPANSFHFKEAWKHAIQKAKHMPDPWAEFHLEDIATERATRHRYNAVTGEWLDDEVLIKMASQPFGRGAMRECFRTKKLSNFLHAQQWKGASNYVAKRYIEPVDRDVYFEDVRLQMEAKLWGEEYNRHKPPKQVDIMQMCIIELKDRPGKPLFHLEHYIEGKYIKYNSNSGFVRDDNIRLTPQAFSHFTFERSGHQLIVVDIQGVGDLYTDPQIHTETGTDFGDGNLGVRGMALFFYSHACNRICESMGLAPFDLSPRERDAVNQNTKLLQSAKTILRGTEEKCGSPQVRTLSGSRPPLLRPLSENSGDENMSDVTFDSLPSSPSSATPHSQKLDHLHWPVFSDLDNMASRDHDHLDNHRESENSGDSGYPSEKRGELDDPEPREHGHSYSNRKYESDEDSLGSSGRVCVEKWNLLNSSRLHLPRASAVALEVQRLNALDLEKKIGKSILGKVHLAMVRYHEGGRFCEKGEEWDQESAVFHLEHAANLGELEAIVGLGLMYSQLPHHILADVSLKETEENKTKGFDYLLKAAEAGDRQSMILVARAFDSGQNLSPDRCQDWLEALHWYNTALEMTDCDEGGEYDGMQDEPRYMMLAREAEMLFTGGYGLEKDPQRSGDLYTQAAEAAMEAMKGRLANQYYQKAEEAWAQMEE
Chain of CHEK2 (human) (O96017 whole entry, looked up): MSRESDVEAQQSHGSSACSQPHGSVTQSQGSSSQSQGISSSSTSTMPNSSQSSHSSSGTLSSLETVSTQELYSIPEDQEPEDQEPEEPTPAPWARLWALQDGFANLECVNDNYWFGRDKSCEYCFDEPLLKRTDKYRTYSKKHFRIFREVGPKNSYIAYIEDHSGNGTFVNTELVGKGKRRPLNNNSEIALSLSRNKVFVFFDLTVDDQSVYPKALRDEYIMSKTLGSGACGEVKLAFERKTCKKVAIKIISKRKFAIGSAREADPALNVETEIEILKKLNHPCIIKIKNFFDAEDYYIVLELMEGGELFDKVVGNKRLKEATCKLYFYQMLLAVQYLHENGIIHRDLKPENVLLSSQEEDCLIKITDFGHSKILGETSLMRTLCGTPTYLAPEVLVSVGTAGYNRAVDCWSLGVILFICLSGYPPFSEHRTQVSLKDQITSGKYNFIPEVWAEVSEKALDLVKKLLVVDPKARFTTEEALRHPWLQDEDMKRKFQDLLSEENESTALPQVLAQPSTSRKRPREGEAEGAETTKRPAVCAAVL

CCc1cncnc1N1CCN(Cc2nc3cc(C(F)(F)F)ccc3[nH]2)CC1
residual activity (AURKB (human); compound 0.1 µM): 89%
residual activity (AURKB (human); compound 1.0 µM): 87%
residual activity (AURKB (human); compound 10.0 µM): 49%
residual activity (CDK2 CCNA2 (human); compound 1.0 µM): 101%
residual activity (CDK2 CCNA2 (human); compound 10.0 µM): 88%
residual activity (CHEK2 (human); compound 0.1 µM): 101%
residual activity (CHEK2 (human); compound 1.0 µM): 73%
residual activity (CHEK2 (human); compound 10.0 µM): 72%
residual activity (CSK (human); compound 0.1 µM): 94%
residual activity (CSK (human); compound 1.0 µM): 93%
residual activity (CSK (human); compound 10.0 µM): 98%
residual activity (CSNK2A1 (human); compound 0.1 µM): 96%
residual activity (CSNK2A1 (human); compound 1.0 µM): 92%
residual activity (CSNK2A1 (human); compound 10.0 µM): 83%
residual activity (EEF2K (human); compound 0.1 µM): 90%
residual activity (EEF2K (human); compound 1.0 µM): 73%
residual activity (EEF2K (human); compound 10.0 µM): 78%
residual activity (EPHB3 (human); compound 0.1 µM): 132%
residual activity (EPHB3 (human); compound 1.0 µM): 139%
residual activity (EPHB3 (human); compound 10.0 µM): 101%
residual activity (FGFR1 (human); compound 0.1 µM): 91%
residual activity (FGFR1 (human); compound 1.0 µM): 92%
residual activity (FGFR1 (human); compound 10.0 µM): 63%
residual activity (GSK3B (human); compound 0.1 µM): 87%
residual activity (GSK3B (human); compound 1.0 µM): 96%
residual activity (GSK3B (human); compound 10.0 µM): 92%
residual activity (IKBKB (human); compound 0.1 µM): 104%
residual activity (IKBKB (human); compound 1.0 µM): 119%
residual activity (IKBKB (human); compound 10.0 µM): 102%
residual activity (INSRR (human); compound 0.1 µM): 88%
residual activity (INSRR (human); compound 1.0 µM): 96%
residual activity (INSRR (human); compound 10.0 µM): 77%
residual activity (LCK (mouse); compound 0.1 µM): 91%
residual activity (LCK (mouse); compound 1.0 µM): 92%
residual activity (LCK (mouse); compound 10.0 µM): 88%
residual activity (MAPK1 (human); compound 0.1 µM): 93%
residual activity (MAPK1 (human); compound 1.0 µM): 85%
residual activity (MAPK1 (human); compound 10.0 µM): 86%
residual activity (MAPK13 (human); compound 0.1 µM): 89%
residual activity (MAPK13 (human); compound 1.0 µM): 82%
residual activity (MAPK13 (human); compound 10.0 µM): 91%
residual activity (MELK (human); compound 0.1 µM): 94%
residual activity (MELK (human); compound 1.0 µM): 101%
residual activity (MELK (human); compound 10.0 µM): 87%
residual activity (MKNK1 (human); compound 0.1 µM): 101%
residual activity (MKNK1 (human); compound 1.0 µM): 91%
residual activity (MKNK1 (human); compound 10.0 µM): 79%
residual activity (MKNK2 (human); compound 0.1 µM): 92%
residual activity (MKNK2 (human); compound 1.0 µM): 93%
residual activity (MKNK2 (human); compound 10.0 µM): 79%
residual activity (MYLK (human); compound 0.1 µM): 95%
residual activity (MYLK (human); compound 1.0 µM): 79%
residual activity (MYLK (human); compound 10.0 µM): 87%
residual activity (PHKG1 (human); compound 0.1 µM): 100%
residual activity (PHKG1 (human); compound 1.0 µM): 96%
residual activity (PHKG1 (human); compound 10.0 µM): 104%
residual activity (PRKAA1 or PRKAA2 (rat); compound 0.1 µM): 100%
residual activity (PRKAA1 or PRKAA2 (rat); compound 1.0 µM): 88%
residual activity (PRKAA1 or PRKAA2 (rat); compound 10.0 µM): 46%
residual activity (PRKACA (human); compound 0.1 µM): 84%
residual activity (PRKACA (human); compound 1.0 µM): 83%
residual activity (PRKACA (human); compound 10.0 µM): 34%
residual activity (PRKCZ (human); compound 0.1 µM): 78%
residual activity (PRKCZ (human); compound 1.0 µM): 75%
residual activity (PRKCZ (human); compound 10.0 µM): 70%
residual activity (ROCK2 (rat); compound 0.1 µM): 98%
residual activity (ROCK2 (rat); compound 1.0 µM): 91%
residual activity (ROCK2 (rat); compound 10.0 µM): 58%
residual activity (RPS6KA1 KD1 KD2 (human); compound 0.1 µM): 46%
residual activity (RPS6KA1 KD1 KD2 (human); compound 1.0 µM): 33%
residual activity (RPS6KA1 KD1 KD2 (human); compound 10.0 µM): 0%
residual activity (SRC (human); compound 0.1 µM): 103%
residual activity (SRC (human); compound 10.0 µM): 92%
